Data as given in patent publication US10450326B2, “Thiazolopyrimidinone compounds and preparation methods and use thereof” (PEKING UNIVERSITY, priority 2015, dated 2019).
Entries after “also recorded” stand apart in the source; their conditions may differ.

What was measured:
[1] = biological target: T1, α7 nAChR (Homo sapiens, UniProt P36544); experiment: α7 nAChR positive allosteric modulator activity assay, voltage clamp in Xenopus oocytes with 100 μM ACh; type: cell-based
T1 construct: expressed in transfected cells; host or cells: Xenopus oocytes (cRNA injection)
T1 sequence (P36544 23-502): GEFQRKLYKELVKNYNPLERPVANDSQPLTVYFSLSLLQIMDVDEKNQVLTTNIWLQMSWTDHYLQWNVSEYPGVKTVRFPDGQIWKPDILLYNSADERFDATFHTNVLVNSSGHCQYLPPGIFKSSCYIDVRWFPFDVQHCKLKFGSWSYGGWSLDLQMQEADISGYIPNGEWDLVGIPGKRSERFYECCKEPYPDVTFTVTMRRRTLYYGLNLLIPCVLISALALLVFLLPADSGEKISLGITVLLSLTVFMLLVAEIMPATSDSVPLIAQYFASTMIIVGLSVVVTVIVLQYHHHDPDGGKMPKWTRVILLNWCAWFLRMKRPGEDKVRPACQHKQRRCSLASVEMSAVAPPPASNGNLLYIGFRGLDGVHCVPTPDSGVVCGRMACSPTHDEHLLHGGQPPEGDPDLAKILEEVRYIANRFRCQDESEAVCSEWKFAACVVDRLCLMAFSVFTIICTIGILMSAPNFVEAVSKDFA
Method: The experimental process was as follows:
(1) Xenopus oocytes were injected with cRNA encoding α7 nAChR in order to express α7 nAChR on the cell membrane successfully;
(2) 100 μM ACh alone was added, and the α7 nAChR characteristic current caused by it was recorded as a control;
(5) The oocytes were incubated for 1 min with 10 μM compound, then 10 µM compound and 100 μM ACh were added simultaneously and the current induced by ACh was recorded at this time;
(6) The differences between the two currents in terms of peak intensity and duration were compared, with the ratio of peak intensity of the two currents representing the adjustment effect (Enhance Rate), in order to determine whether the compound had PAM activity, if the activity was good, then the subsequent test was carried out;
(7) Concentration gradient was set and the effects of compounds at different concentrations on the α7 nAChR characteristic current induced by 100 μM ACh were evaluated. Several determinations were carried out at the same concentration, and the results were presented in the form of “mean±standard deviation”;
(8) The EC50 (median maximum effect concentration) values and Max mod (the current amplitude caused by the maximal degree of adjustable endogenous agonist acetylcholine) values of the compounds and other activity data were obtained by Hill equation Inormalized=Emax/(1+(EC50/C)nH).
The amplitude of the peak current is only normalized by the amplitude produced by 100 μM ACh and different concentrations of LD486. […] It can be seen from FIG. 3 that the Hill equation is used to fit the dose-response curve and calculate the kinetic parameters.

[2] = biological target: T2, α7 nAChR (Rattus norvegicus, UniProt Q05941); experiment: Radioisotope ligand binding assay, displacement of [3H]-Methyllycaconitine bound to rat brain cell membrane; conditions: concentration increased to 10 μM; hippocampus of rats
T2 construct: from tissue; host or cells: rat brain (hippocampus) cell membranes
T2 sequence (Q05941 23-502): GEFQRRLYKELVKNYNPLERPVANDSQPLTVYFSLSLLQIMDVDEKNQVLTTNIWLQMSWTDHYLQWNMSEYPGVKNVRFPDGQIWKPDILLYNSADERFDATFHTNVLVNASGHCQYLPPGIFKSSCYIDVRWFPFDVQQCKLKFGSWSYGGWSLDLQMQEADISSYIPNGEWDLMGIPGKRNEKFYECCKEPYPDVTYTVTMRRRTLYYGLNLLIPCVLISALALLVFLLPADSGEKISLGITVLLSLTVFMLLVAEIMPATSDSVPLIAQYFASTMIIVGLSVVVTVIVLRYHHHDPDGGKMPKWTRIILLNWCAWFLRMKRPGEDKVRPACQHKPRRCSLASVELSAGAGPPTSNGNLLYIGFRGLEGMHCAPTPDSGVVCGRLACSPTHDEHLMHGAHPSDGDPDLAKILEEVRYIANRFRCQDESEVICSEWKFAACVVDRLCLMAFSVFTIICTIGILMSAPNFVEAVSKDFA

[3] = biological target: T3, α4β2 receptors (Homo sapiens, UniProt P17787+P43681); experiment: Two-electrode voltage clamp in Xenopus oocytes, α4β2 receptor; type: cell-based; conditions: 10 μM LD486, pre-stimulated 60 seconds, 10 μM ACh
T3 construct: expressed in transfected cells; host or cells: Xenopus oocytes
T3 sequence (P43681 29-627 limits assumed): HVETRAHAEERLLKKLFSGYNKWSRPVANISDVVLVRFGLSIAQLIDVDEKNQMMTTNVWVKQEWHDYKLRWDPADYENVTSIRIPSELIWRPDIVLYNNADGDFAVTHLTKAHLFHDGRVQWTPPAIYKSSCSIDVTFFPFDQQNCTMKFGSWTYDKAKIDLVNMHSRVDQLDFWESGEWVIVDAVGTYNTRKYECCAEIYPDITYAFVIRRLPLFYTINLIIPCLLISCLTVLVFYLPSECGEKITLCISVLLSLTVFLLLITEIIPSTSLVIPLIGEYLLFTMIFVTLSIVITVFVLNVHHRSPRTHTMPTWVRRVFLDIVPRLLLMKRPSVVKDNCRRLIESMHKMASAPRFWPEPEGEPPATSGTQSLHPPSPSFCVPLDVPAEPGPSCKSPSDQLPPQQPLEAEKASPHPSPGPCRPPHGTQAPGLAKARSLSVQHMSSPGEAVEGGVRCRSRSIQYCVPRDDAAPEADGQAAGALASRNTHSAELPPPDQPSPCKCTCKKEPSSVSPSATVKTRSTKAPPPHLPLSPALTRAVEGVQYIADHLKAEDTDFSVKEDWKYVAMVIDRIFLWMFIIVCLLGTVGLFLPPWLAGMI
T3 sequence (P17787 26-502): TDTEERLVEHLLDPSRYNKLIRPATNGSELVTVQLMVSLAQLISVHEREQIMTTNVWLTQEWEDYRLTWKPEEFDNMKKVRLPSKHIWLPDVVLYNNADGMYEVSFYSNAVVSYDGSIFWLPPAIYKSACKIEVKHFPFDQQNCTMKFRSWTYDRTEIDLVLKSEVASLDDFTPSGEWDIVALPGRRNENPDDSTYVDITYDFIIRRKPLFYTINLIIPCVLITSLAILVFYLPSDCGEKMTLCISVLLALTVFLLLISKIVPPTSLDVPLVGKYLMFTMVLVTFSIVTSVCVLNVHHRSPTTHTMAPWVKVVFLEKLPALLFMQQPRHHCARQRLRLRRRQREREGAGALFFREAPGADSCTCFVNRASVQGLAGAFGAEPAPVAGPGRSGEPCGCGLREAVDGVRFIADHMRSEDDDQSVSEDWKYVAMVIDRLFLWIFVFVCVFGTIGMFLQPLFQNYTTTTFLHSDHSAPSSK
Method: (§1) FIGS. 4A and B show the response intensity curves of Xenopus oocytes stimulated by only […] Ach to α4β2 and α3β4 in the left panel, respectively.
(§2) FIGS. 4A and B show the response intensity curves of Xenopus oocytes stimulated by 10 μM ACh and […] LD486 to α4β2 and α3β4 in the right panel, respectively. Xenopus oocytes are pre-stimulated with 10 μM LD486 for 60 seconds.
(§3) Used as exogenous expression system, Xenopus oocytes are injected with different α subunits and β subunits at 1:1 ratio.

[4] = biological target: T4, α3β4 receptors (Homo sapiens, UniProt P30926+P32297); experiment: Two-electrode voltage clamp in Xenopus oocytes, α3β4 receptor; type: cell-based; conditions: 10 μM LD486, pre-stimulated 60 seconds, 10 μM ACh
T4 construct: expressed in transfected cells; host or cells: Xenopus oocytes
T4 sequence (P32297 32-505): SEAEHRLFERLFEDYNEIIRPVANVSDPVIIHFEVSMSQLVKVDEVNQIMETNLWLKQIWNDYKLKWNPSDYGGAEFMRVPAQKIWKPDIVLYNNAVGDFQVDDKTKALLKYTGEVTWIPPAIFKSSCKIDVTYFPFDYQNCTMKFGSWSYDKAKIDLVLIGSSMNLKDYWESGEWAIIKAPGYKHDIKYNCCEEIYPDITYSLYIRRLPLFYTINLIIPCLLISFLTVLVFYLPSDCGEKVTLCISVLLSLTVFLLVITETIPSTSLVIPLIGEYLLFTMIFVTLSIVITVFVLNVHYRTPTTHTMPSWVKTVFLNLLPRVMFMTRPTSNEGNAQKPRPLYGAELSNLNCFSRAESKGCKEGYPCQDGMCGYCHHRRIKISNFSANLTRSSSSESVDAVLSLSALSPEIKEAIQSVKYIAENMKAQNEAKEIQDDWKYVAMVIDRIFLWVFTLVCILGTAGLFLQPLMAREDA
T4 sequence (P30926 22-498): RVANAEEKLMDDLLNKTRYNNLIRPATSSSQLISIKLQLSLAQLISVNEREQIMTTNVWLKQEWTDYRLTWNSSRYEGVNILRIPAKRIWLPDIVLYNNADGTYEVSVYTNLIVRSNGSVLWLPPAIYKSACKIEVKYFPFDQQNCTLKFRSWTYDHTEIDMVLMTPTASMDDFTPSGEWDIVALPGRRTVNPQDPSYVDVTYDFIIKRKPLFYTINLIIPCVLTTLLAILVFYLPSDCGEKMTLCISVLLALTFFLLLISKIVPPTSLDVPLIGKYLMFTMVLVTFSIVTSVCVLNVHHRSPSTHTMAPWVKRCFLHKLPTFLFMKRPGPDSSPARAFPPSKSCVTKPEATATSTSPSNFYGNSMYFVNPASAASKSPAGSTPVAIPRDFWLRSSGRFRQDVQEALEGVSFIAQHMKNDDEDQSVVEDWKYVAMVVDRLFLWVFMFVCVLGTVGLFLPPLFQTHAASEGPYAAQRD
Method: as §1, §2, §3

[5] = biological target: T5, hERG (human ether-a-go-go related gene) channel (Homo sapiens, UniProt Q12809); experiment: Automatic patch clamp Qplate-16 assay, hERG channel expressed on CHO cell lines; type: cell-based; conditions: CHO cells
T5 construct: expressed in transfected cells; host or cells: CHO (Chinese hamster ovary) cell lines
T5 sequence (Q12809 whole entry): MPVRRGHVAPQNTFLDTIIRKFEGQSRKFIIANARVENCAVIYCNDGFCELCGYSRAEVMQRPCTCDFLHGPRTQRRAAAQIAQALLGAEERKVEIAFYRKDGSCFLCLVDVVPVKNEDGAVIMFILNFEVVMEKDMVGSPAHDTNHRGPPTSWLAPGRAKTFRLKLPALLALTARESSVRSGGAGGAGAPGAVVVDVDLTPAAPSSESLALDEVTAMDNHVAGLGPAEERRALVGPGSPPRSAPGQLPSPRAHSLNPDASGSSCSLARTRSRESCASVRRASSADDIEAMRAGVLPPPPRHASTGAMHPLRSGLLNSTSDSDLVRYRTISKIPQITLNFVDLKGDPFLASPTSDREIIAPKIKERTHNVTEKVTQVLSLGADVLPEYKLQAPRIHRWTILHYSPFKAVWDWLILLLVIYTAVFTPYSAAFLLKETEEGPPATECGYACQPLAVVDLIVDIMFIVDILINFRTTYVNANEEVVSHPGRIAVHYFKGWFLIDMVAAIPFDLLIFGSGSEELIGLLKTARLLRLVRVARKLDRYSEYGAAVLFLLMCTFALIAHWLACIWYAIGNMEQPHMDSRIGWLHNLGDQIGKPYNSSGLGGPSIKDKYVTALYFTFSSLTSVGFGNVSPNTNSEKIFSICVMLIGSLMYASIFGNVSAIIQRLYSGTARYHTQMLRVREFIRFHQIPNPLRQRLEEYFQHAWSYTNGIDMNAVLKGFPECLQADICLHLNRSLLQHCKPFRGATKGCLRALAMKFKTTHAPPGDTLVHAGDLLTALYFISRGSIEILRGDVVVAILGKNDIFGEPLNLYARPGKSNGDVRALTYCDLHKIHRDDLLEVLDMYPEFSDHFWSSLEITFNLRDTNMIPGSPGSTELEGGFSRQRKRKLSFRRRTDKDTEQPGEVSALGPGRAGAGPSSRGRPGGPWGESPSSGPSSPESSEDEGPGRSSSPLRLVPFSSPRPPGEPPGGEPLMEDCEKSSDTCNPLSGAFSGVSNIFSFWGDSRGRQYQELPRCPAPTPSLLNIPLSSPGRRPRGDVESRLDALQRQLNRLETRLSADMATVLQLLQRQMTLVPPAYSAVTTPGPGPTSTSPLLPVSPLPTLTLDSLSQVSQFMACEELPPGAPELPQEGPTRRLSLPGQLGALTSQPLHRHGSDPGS
Source text: In the absence of LD486 or cisapride or in the presence of LD486 or cisapride at different concentrations, drug-related hERG potassium channel inhibition can lead to ventricular delayed repolarization (long QT interval syndrome), which may lead to a current intensity of fatal arrhythmia such as torsades de pointes, and even sudden death.

## Cc1nc(Cl)cc(Nc2nc3ncn(-c4c(C)cccc4Cl)c(=O)c3s2)n1 [LD486, 2-((6-Chloro-2-methylpyrimidin-4-yl)amino)-6-(2-chloro-6-methylphenyl)thiazolo[4,5-d]pyrimidin-7(6H)-one]
[1]; FIG. 3, Hill equation fit
  maximal degree of adjustable endogenous agonist ACh current amplitude: about 3.2 times
[1]; FIG. 3, n=6
  Hill coefficient: 1.4±0.2
[1]; FIG. 3, normalized to 100 μM ACh, repeated 6 times
  Emax: 320%
[1]; FIG. 3 concentration response curve, 100 μM ACh, n=6
  EC50: 3.2 ± 0.3 µM
[1]; LD486 0.1-10 μM alone, without ACh, FIG. 2
  induction of α7 nAChR characteristic current by compound alone: does not induce
[1]; at 10 μM compound, current induced by 100 μM ACh, Xenopus oocytes expressing α7 nAChR, read-out: Max Mod (%, at 10 μM)
  activity at 10 µM: 320%
[1]; incubation 1 min, then same concentration of LD486 plus 100 μM ACh, FIG. 2
  current amplitude induced by 100 μM ACh compared with the control group: significantly increased
[1]; summary statement, read-out: Ki value as an α7nAChR PAM
  Ki: ~3 µM
[2]
  effect on binding of [3H]-MLA to α7 nAChR: does not affect; also recorded: not reduced
[3]
  effect on current of α4β2 receptors: did not increase; also recorded: no significant effect
[4]
  effect on current of α3β4 receptors: did not increase; also recorded: no significant effect
[5]
  inhibitory effect on the hERG channel: no inhibitory effect; also recorded: slight inhibitory effect
